Data: US20090076049A1, “Novel Spiro [Imidazolidine-4, 3' -Indole] 2, 2', 5' (1H) Triones for Treatment of Conditions Associated with Vanilloid Receptor 1” (AstraZeneca AB, priority 2006, published 2009)

The compounds below were run against T1, hVR1 (Homo sapiens, UniProt Q8NER1) (assay: hVR1 FLIPR (Fluorometric Image Plate Reader) screening assay, IC50 determination). Conditions: transfected CHO cells stably expressing hVR1; Fluo-4 calcium signal; agonist 50 nM capsaicin or MES buffer pH 5.2.
T1 construct: expressed in transfected cells; host or cells: CHO cells, stably transfected
T1 sequence (Q8NER1 whole entry): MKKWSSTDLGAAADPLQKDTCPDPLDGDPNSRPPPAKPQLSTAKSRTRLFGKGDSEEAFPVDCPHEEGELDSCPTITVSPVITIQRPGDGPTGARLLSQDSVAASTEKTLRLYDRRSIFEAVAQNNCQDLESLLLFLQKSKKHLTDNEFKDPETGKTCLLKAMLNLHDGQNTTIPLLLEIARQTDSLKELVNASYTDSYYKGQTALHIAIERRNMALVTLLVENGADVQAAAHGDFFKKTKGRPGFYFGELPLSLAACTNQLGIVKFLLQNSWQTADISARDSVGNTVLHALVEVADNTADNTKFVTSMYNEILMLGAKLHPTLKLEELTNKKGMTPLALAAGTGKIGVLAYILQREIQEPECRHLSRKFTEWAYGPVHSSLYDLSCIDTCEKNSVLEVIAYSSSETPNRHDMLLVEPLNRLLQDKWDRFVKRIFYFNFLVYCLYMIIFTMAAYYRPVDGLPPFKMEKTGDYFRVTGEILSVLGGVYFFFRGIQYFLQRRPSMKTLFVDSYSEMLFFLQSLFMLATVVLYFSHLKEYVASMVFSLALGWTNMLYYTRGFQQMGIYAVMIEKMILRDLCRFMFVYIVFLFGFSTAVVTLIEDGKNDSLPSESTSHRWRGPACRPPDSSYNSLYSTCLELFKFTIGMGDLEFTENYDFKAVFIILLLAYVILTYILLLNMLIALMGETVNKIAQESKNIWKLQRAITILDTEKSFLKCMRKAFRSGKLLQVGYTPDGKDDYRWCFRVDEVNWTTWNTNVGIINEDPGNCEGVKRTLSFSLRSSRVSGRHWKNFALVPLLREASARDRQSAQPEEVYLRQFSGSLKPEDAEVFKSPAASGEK
Type: cell-based
Description: 1. hVR1 FLIPR (Fluorometric Image Plate Reader) Screening Assay
Transfected CHO cells, stably expressing hVR1 (15,000 cells/well) are seeded in 50 μL media in a black clear bottom 384 plate (Greiner) and grown in a humidified incubator (37° C., 2% CO2), 24-30 hours prior to experiment.
Subsequently, the media is removed from the cell plate by inversion and 2 μM Fluo-4 is added using a multidrop (Labsystems). Following the 40 min dye incubation in the dark at 37° C. and 2% CO2, the extracellular dye present is washed away using an EMBLA (Scatron), leaving the cells in 40 μL of assay buffer (1×HBSS, 10 mM D-Glucose, 1 mM CaCl2, 10 mM HEPES, 10×7.5% NaHCO3 and 2.5 mM Probenecid).
FLIPR Assay—IC50 Determination Protocol
For IC50 determinations the fluorescence is read using FLIPR filter 1 (em […]). A cellular baseline recording is taken for 30 seconds, followed by a 20 μL addition of 10, titrated half-log concentrations of the test compound, yielding cellular concentration ranging from 3 μM to 0.1 nM. Data is collected every 2 seconds for a further 5 min prior to the addition of a VR1 agonist solution: either 50 nM solution of capsaicin or MES (2-[N-morpholino]ethanesulfonic acid) buffer (pH 5.2), by the FLIPR pipettor. The FLIPR continues to collect data for a further 4 min. Compounds having antagonistic properties against the hVR1 will inhibit the increase in intracellular calcium in response to the capsaicin addition. This consequently leading to a reduction in fluorescence signal and providing a reduced fluorescence reading, compared with no compound, buffer controls. Data is exported by the FLIPR program as a sum of fluorescence calculated under the curve upon the addition of capsaicin. Maximum inhibition, Hill slope and IC50 data for each compound are generated.

| IC50 | SMILES |
| --- | --- |
| 3 µM | O=C1NC(=O)C2(N1)C(=O)N(C/C=C/c1ccc(Cl)c(Cl)c1)c1ccc(OC(F)(F)F)cc12 (stereo not drawn) [Compound 3] |
| 2.11 µM | CN1C(=O)N(C)C2(C1=O)C(=O)N(C/C=C/c1ccc(Cl)c(Cl)c1)c1ccccc12 (stereo not drawn) [Compound 5, 1′-[(2E)-3-(3,4-dichlorophenyl)prop-2-en-1-yl]-1,3-dimethyl-2H,5H-spiro[imidazolidine-4,3′-indole]-2,2′,5(1′H)-trione] |
| 3.01 µM | COCCN1C(=O)N(CCOC)C2(C1=O)C(=O)N(C/C=C/c1ccc(Cl)c(Cl)c1)c1ccccc12 (stereo not drawn) [Compound 7, 1′-[(2E)-3-(3,4-dichlorophenyl)prop-2-en-1-yl]-1,3-bis(2-methoxyethyl)-2H,5H-spiro[imidazolidine-4,3′-indole]-2,2′,5(1′H)-trione] |
